Experimental data: ChEMBL document CHEMBL2434921, “New synthetic aliphatic sulfonamido-quaternary ammonium salts as anticancer chemotherapeutic agents” (2013)
Active and inactive are the calls of the source. No cut-off for these calls is given here.

Tests used:
[1] = system: NCI-H23; assay: Growth inhibition of human NCI-H23 cells after 48 hrs by SRB assay; format: functional; conditions: NCI-H23, 48 h
[2] = system: HCT-15; assay: Growth inhibition of human HCT15 cells after 48 hrs by SRB assay; format: functional
[3] = molecular target: Rho-related GTP-binding protein RhoB (Homo sapiens) (UniProt P62745); assay: Transactivation of RhoB (unknown origin) transfected in human HeLa cells at 5 uM measured over 10 secs by dual luciferase reporter gene assay; format: cell-based
Sequence of Rho-related GTP-binding protein RhoB (Homo sapiens) (P62745 whole entry): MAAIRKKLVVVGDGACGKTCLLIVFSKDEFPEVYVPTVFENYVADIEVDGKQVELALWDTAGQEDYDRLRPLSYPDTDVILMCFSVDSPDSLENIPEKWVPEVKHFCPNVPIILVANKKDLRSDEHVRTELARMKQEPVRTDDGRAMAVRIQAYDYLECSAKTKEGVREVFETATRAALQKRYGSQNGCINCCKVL

[4] = system: NUGC-3; assay: Growth inhibition of human NUGC3 cells after 48 hrs by SRB assay; format: functional; conditions: NUGC-3, 48 h
[5] = system: ACHN; assay: Growth inhibition of human ACHN cells after 48 hrs by SRB assay; format: functional
[6] = system: MDA-MB-231; assay: Growth inhibition of human MDA-MB-231 cells after 48 hrs by SRB assay; format: functional; conditions: MDA-MB-231, 48 h
[7] = system: PC-3; assay: Growth inhibition of human PC3 cells after 48 hrs by SRB assay; format: functional; conditions: PC-3, 48 h
[8] = system: PC-3; assay: Growth of human PC3 cells at 10 uM after 48 hrs by SRB assay; conditions: PC-3, 48 h
[9] = system: NUGC-3; assay: Growth of human NUGC3 cells at 1 uM after 48 hrs by SRB assay; conditions: NUGC-3, 48 h
[10] = system: ACHN; assay: Growth of human ACHN cells at 10 uM after 48 hrs by SRB assay
[11] = system: HCT-15; assay: Growth of human HCT15 cells at 3 uM after 48 hrs by SRB assay; conditions: HCT-15, 48 h
[12] = system: ACHN; assay: Growth of human ACHN cells at 0.1 uM after 48 hrs by SRB assay
[13] = system: ACHN; assay: Growth of human ACHN cells at 0.3 uM after 48 hrs by SRB assay
[14] = system: NUGC-3; assay: Growth of human NUGC3 cells at 0.1 uM after 48 hrs by SRB assay; conditions: NUGC-3, 48 h
[15] = system: NUGC-3; assay: Growth of human NUGC3 cells at 0.3 uM after 48 hrs by SRB assay; conditions: NUGC-3, 48 h
[16] = system: HCT-15; assay: Growth of human HCT15 cells at 0.3 uM after 48 hrs by SRB assay; conditions: HCT-15, 48 h
[17] = system: NCI-H23; assay: Growth of human NCI-H23 cells at 10 uM after 48 hrs by SRB assay; conditions: NCI-H23, 48 h
[18] = system: NCI-H23; assay: Growth of human NCI-H23 cells at 0.3 uM after 48 hrs by SRB assay; conditions: NCI-H23, 48 h
[19] = system: MDA-MB-231; assay: Growth of human MDA-MB-231 cells at 1 uM after 48 hrs by SRB assay; conditions: MDA-MB-231, 48 h
[20] = system: MDA-MB-231; assay: Growth of human MDA-MB-231 cells at 10 uM after 48 hrs by SRB assay; conditions: MDA-MB-231, 48 h
[21] = system: MDA-MB-231; assay: Growth of human MDA-MB-231 cells at 0.1 uM after 48 hrs by SRB assay; conditions: MDA-MB-231, 48 h
[22] = system: MDA-MB-231; assay: Growth of human MDA-MB-231 cells at 3 uM after 48 hrs by SRB assay; values are per cent of control; conditions: MDA-MB-231, 48 h
[23] = system: PC-3; assay: Growth inhibition of human PC3 cells at 1 uM after 48 hrs by SRB assay; values are per cent of control; conditions: PC-3, 48 h
[24] = system: PC-3; assay: Growth inhibition of human PC3 cells at 3 uM after 48 hrs by SRB assay; values are per cent of control; conditions: PC-3, 48 h
[25] = system: ACHN; assay: Growth inhibition of human ACHN cells at 3 uM after 48 hrs by SRB assay; values are per cent of control
[26] = system: ACHN; assay: Growth inhibition of human ACHN cells at 1 uM after 48 hrs by SRB assay; values are per cent of control
[27] = system: NUGC-3; assay: Growth inhibition of human NUGC3 cells at 3 uM after 48 hrs by SRB assay; values are per cent of control; conditions: NUGC-3, 48 h
[28] = system: PC-3; assay: Growth inhibition of human PC3 cells at 0.1 uM after 48 hrs by SRB assay; values are per cent of control; conditions: PC-3, 48 h
[29] = system: PC-3; assay: Growth inhibition of human PC3 cells at 0.3 uM after 48 hrs by SRB assay; values are per cent of control; conditions: PC-3, 48 h
[30] = system: HCT-15; assay: Growth inhibition of human HCT15 cells at 1 uM after 48 hrs by SRB assay; values are per cent of control; conditions: HCT-15, 48 h
[31] = system: NUGC-3; assay: Growth inhibition of human NUGC3 cells at 10 uM after 48 hrs by SRB assay; values are per cent of control; conditions: NUGC-3, 48 h
[32] = system: HCT-15; assay: Growth inhibition of human HCT15 cells at 10 uM after 48 hrs by SRB assay; values are per cent of control; conditions: HCT-15, 48 h
[33] = system: NCI-H23; assay: Growth inhibition of human NCI-H23 cells at 1 uM after 48 hrs by SRB assay; values are per cent of control; conditions: NCI-H23, 48 h
[34] = system: NCI-H23; assay: Growth inhibition of human NCI-H23 cells at 3 uM after 48 hrs by SRB assay; values are per cent of control; conditions: NCI-H23, 48 h
[35] = system: HCT-15; assay: Growth inhibition of human HCT15 cells at 0.1 uM after 48 hrs by SRB assay; values are per cent of control; conditions: HCT-15, 48 h
[36] = system: NCI-H23; assay: Growth inhibition of human NCI-H23 cells at 0.1 uM after 48 hrs by SRB assay; values are per cent of control; conditions: NCI-H23, 48 h
[37] = system: MDA-MB-231; assay: Growth inhibition of human MDA-MB-231 cells at 0.3 uM after 48 hrs by SRB assay; values are per cent of control; conditions: MDA-MB-231, 48 h

| Compound | GI50 [1] [nM] | GI50 ([2]; HCT-15, 48 h) [nM] | Activity [3] | GI50 [4] [nM] | GI50 [5] [nM] | GI50 [6] [nM] | GI50 [7] [nM] | growth, % of control at 10 µM [8] [%] | growth, % of control at 1 µM [9] [%] | growth, % of control at 10 µM [10] [%] | growth, % of control at 3 µM [11] [%] | growth, % of control at 0.1 µM [12] [%] | growth, % of control at 0.3 µM [13] [%] | growth, % of control at 0.1 µM [14] [%] | growth, % of control at 0.3 µM [15] [%] | growth, % of control at 0.3 µM [16] [%] | growth, % of control at 10 µM [17] [%] | growth, % of control at 0.3 µM [18] [%] | growth, % of control at 1 µM [19] [%] | growth, % of control at 10 µM [20] [%] | further results |
| --- | --- | --- | --- | --- | --- | --- | --- | --- | --- | --- | --- | --- | --- | --- | --- | --- | --- | --- | --- | --- | --- |
| CCCCCCCCCCCCCCS(=O)(=O)N(C)CC[N+](C)(CC)CC | 710 | 2350 | Active | 520 | 1740 | 1220 | 820 | -1.7 | 45.7 | 16.4 | 60.5 | 100 | 102 | 98.7 | 104 | 96.3 | -0.5 | 91 | 81.5 | 16.5 | growth, % of control at 0.1 µM [21]: 103%; growth, % of control at 3 µM [22]: 34.3%; growth, % of control at 1 µM [23]: 79.9%; growth, % of control at 3 µM [24]: 10.5%; growth, % of control at 3 µM [25]: 51.7%; growth, % of control at 1 µM [26]: 87.4%; growth, % of control at 3 µM [27]: 10.6%; growth, % of control at 0.1 µM [28]: 114%; growth, % of control at 0.3 µM [29]: 108%; growth, % of control at 1 µM [30]: 88.4%; growth, % of control at 10 µM [31]: 3.1%; growth, % of control at 10 µM [32]: 27%; growth, % of control at 1 µM [33]: 65.4%; growth, % of control at 3 µM [34]: 16.4%; growth, % of control at 0.1 µM [35]: 95%; growth, % of control at 0.1 µM [36]: 96.5%; growth, % of control at 0.3 µM [37]: 101% |
| CCCCCCCCCCCCCCCCS(=O)(=O)NCCC[N+](C)(C)C | 1560 | 860 | Active | 560 | 1890 | 1390 | 580 | -32.7 | 60.2 | -7.7 | 22.4 | 117 | 119 | 103 | 93.6 | 93 | -23.1 | 93.7 | 87 | 12.9 | growth, % of control at 0.1 µM [21]: 103%; growth, % of control at 3 µM [22]: 41%; growth, % of control at 1 µM [23]: 64.6%; growth, % of control at 3 µM [24]: -1%; growth, % of control at 3 µM [25]: 80.3%; growth, % of control at 1 µM [26]: 112%; growth, % of control at 3 µM [27]: -5.5%; growth, % of control at 0.1 µM [28]: 100%; growth, % of control at 0.3 µM [29]: 102%; growth, % of control at 1 µM [30]: 73.6%; growth, % of control at 10 µM [31]: -37.7%; growth, % of control at 10 µM [32]: 1.7%; growth, % of control at 1 µM [33]: 88.6%; growth, % of control at 3 µM [34]: 47.1%; growth, % of control at 0.1 µM [35]: 96%; growth, % of control at 0.1 µM [36]: 86.7%; growth, % of control at 0.3 µM [37]: 108% |
| C=CC[N+](C)(C)CCN(C)C(=O)CCCCCCCCCCCCC | 240 |  |  | 140 | 100 | 300 | 210 |  |  |  |  |  |  |  |  |  |  |  |  |  | GI50 [2]: inactive |
